{
  "source": "paper PMC11806944",
  "about": "(Analytical methods : advancing methods and applications, 2025)",
  "key": {"zebrafish embryos [1]": {"system": "zebrafish embryos", "conditions": "Tropical 5D wild-type, in vivo, 35 μM; for Chemical uptake amount as share of the total chemical amount added: 5 day"}, "[2]": {"conditions": "estimated; cited from earlier work"}, "embryonic zebrafish": {"system": "embryonic zebrafish", "conditions": "cited from earlier work"}, "[3]": {"assay": "Sorption control wells: abiotic losses to polystyrene 96-well microplate", "assay_type": "physicochemical"}, "[4]": {"conditions": "ref Hazard Substances Data Bank (HSDB); cited from earlier work"}, "zebrafish embryos [5]": {"system": "zebrafish embryos", "conditions": "~120 hpf; for Incidence of any effect in embryonic zebrafish: 35 μM exposure with daily UV fluorescence measurement"}},
  "data": [
    {"smiles": "Oc1ccc2ccccc2c1", "note": "[2-hydroxynaphthalene]", "values": [
      {"measurement": "Total uptake mass per zebrafish embryo, corrected for abiotic losses", "setting": "zebrafish embryos [1]", "result": "2.09 ± 0.89", "unit": "nmol"},
      {"measurement": "Chemical uptake amount as share of the total chemical amount added", "setting": "zebrafish embryos [1]", "result": "approximately 50%"},
      {"measurement": "log Kow", "setting": "[2]", "result": 2.7},
      {"measurement": "Lowest observed adverse effect level (LOAEL)", "setting": "embryonic zebrafish", "result": 35, "unit": "µM"},
      {"measurement": "Actual equilibrium media concentration", "setting": "[3]; control wells, reached after 1 day, ~35 μM nominal", "result": "approximately 31.5 μM"},
      {"measurement": "Henry's coefficient", "setting": "[4]", "result": "2.7 × 10^−8 atm m^3 mol^−1"},
      {"measurement": "Incidence of any effect in embryonic zebrafish", "setting": "zebrafish embryos [5]", "result": 97, "unit": "%"},
      {"measurement": "Endpoints observed shared by both chemicals", "setting": "zebrafish embryos [5]; 35 μM exposure", "result": "mortality, yolk sac and pericardial edema, and pectoral fin malformation"}
    ]},
    {"smiles": "c1ccc2nc3ccccc3cc2c1", "note": "[acridine, Acridine]", "values": [
      {"measurement": "Total uptake mass per zebrafish embryo, corrected for abiotic losses", "setting": "zebrafish embryos [1]", "result": "0.67 ± 0.26", "unit": "nmol"},
      {"measurement": "Chemical uptake amount as share of the total chemical amount added", "setting": "zebrafish embryos [1]", "result": "~21", "unit": "%"},
      {"measurement": "log Kow", "setting": "[2]", "result": 3.4},
      {"measurement": "Lowest observed adverse effect level (LOAEL)", "setting": "embryonic zebrafish", "result": 35, "unit": "µM"},
      {"measurement": "Decrease in sorption rate when plates were removed from the shaker table", "setting": "[3]; t ≤ 1 day vs t ≥ 1 day", "result": 2, "unit": "factor"},
      {"measurement": "Henry's coefficient", "setting": "[4]", "result": "4 × 10^−7 atm m^3 mol^−1"},
      {"measurement": "Incidence of any effect in embryonic zebrafish", "setting": "zebrafish embryos [5]", "result": 100, "unit": "%"},
      {"measurement": "Endpoints observed shared by both chemicals", "setting": "zebrafish embryos [5]; 35 μM exposure", "result": "mortality, yolk sac and pericardial edema, and pectoral fin malformation"},
      {"measurement": "Further endpoints observed", "setting": "zebrafish embryos [5]; 35 μM exposure", "result": "Axis and cranial deformities"}
    ]}
  ]
}
